Legend:
Assay type in all cases: cell-based
[1] = biological target: T1, human prostanoid EP1 receptor (Homo sapiens, UniProt P34995); assay: FLIPR Ca2+ signaling PG antagonist assay, EP1 stable cell line; details: HEK-293 EBNA cells, human recombinant EP1, no exogenous G-protein; standard agonist PGE2
T1 construct: expressed in transfected cells
T1 sequence (P34995 1-402): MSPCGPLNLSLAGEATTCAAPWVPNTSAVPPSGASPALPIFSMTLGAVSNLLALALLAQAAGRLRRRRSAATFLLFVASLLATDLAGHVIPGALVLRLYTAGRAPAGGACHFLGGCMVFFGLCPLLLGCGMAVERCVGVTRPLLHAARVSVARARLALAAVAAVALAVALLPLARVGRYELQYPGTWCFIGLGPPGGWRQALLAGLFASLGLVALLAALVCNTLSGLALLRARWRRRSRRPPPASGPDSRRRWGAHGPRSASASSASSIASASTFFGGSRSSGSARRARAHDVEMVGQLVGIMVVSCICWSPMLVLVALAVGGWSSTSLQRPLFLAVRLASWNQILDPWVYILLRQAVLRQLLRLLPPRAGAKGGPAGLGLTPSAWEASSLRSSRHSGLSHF
Protocol: (§1) The above compounds were tested for PG antagonist activity as follows using human recombinant prostanoid receptor (DP1, EP1-4, FP, IP and TP) stable cell lines: In order to measure the response of Gs and Gi coupled prostanoid receptors as a Ca^2+ signal, chimeric G protein cDNAs were used. Stable cell lines over-expressing human prostanoid DP1, EP1-4, FP, IP, and TP receptors were established as follows:
(§2) Briefly, human prostanoid DP1, EP2, and EP4 receptor cDNAs were co-transfected with chimeric Gqs cDNA containing a haemagglutanin (HA) epitope; human prostanoid EP3 receptors were co-transfected with chimeric Gqi-HA; human EP1, FP, IP, and TP receptor cDNAs were expressed with no exogenous G-proteins. Gqs and Gqi chimeric cDNAs (Molecular Devices, Sunnyvale, Calif., U.S.A.), as well as cDNAs of prostanoid receptors, were cloned into a pCEP4 vector with a hygromycin B selection marker. Transfection into HEK-293 EBNA (Epstein-Barr virus nuclear antigen) cells was achieved by the FuGENE 6 transfection Reagent (Roche Applied Science, Indianapolis, Ind., USA). Stable transfectants were selected according to hygromycin resistance. Because Gqs and Gqi contained an HA epitope, G-protein expression was detected by Western blotting analysis using anti-mouse HA monoclonal antibody and horseradish peroxidase (HRP)-conjugated secondary antibody, while functional expression of prostanoid receptors was detected by FLIPR screening (Matias et al., 2004). These stable cell lines were validated using previously published antagonists at 10 μM against serial dilutions of standard agonists by FLIPR functional assays for Ca^2+ Signaling (as described below).
(§3) Ca^2+ signaling studies were performed using a FLIPR TETRA system (Molecular Devices, Sunnyvale, Calif., USA) in the 384-format. This is a high-throughput instrument for cell-based assays to monitor Ca^2+ signaling associated with GPCRs and ion channels. Cells were seeded at a density of 5×10^4 cells/well in BioCoat poly-D-lysine coated, black wall, clear bottom 384-well plates (BD Biosciences, Franklin lakes, NJ, USA) and allowed to attach overnight in an incubator at 37° C. The cells were then washed twice with HBSS-HEPES buffer (Hanks' balanced salt solution without bicarbonate and phenol red, 20 mM HEPES, pH 7.4) using an ELx405 Select CW Microplate Washer (BioTek, Winooski, Vt., USA). After 60 min of dye-loading in the dark using the Ca^2+-sensitive dye Fluo-4AM (Invitrogen, Carlsbad, Calif., USA), at a final concentration of 2×10^−6M, the plates were washed 4 times with HBSS-HEPES buffer to remove excess dye and leaving 50 μl of buffer in each well. The plates were then placed in the FLIPR TETRA instrument and allowed to equilibrate at 37° C. Compounds were added in a 25 μl volume to each well to give final concentrations of 0.1 μM, 0.3 μM, 1 μM, 3 μM, 10 μM, and 30 μM; or 0.067 μM, 0.1 μM, 0.2 μM, 0.3 μM, 0.67 μM, and 1 μM for cells over-expressing TP receptors. After 4.5 minutes, a 7-point serial dilution of the standard agonist for the corresponding receptor, in a 25 μl volume was injected at the final concentrations from 10^−11M to 10^−5M in 10-fold serial dilution increments for cells expressing human recombinant DP1, EP1, EP2, EP3, EP4, FP, and IP receptors. The dose range for the standard agonist for human recombinant TP receptors was from 10^−12M to 10^−6M. HBSS-HEPES buffer was used as the negative control for the standard agonists. Cells were excited with LED (light emitting diode) excitation at 470-495 nm and emission was measured through an emission filter at 515-575 nm. Assay plates were read for 3.5 minutes using the FLIPR^TETRA. The peak increase in fluorescence intensity was recorded for each well. On each plate, negative controls, dose response of positive controls, and co-treatments of antagonist-agonist for each dose were in triplicates. Standard agonists were as follows: DP=BW 245C, EP1-EP4=PGE2, FP=17-phenyl-PGF2α, IP=Cicaprost, and TP=U-46619. […]

[2] = biological target: T2, human prostanoid EP4 receptor (Homo sapiens, UniProt P35408); assay: FLIPR Ca2+ signaling PG antagonist assay, EP4 stable cell line; details: HEK-293 EBNA cells, human recombinant EP4 with chimeric Gqs; standard agonist PGE2
T2 construct: expressed in transfected cells
Protocol: as §1, §2, §3

[3] = biological target: T3, human prostanoid EP2 receptor (Homo sapiens, UniProt P43116); assay: FLIPR Ca2+ signaling PG antagonist assay, EP2 stable cell line; details: HEK-293 EBNA cells, human recombinant EP2 with chimeric Gqs; standard agonist PGE2
T3 construct: expressed in transfected cells
Protocol: as §1, §2, §3

[4] = biological target: T4, human prostanoid IP receptor (Homo sapiens, UniProt P43119); assay: FLIPR Ca2+ signaling PG antagonist assay, IP stable cell line; details: HEK-293 EBNA cells, human recombinant IP, no exogenous G-protein; standard agonist Cicaprost
T4 construct: expressed in transfected cells
Protocol: as §1, §2, §3

[5] = biological target: T5, human prostanoid FP receptor (Homo sapiens, UniProt P43088); assay: FLIPR Ca2+ signaling PG antagonist assay, FP stable cell line; details: HEK-293 EBNA cells, human recombinant FP, no exogenous G-protein; standard agonist 17-phenyl-PGF2α
T5 construct: expressed in transfected cells
Protocol: as §1, §2, §3

[6] = biological target: T6, human prostanoid DP1 receptor (Homo sapiens, UniProt Q13258); assay: FLIPR Ca2+ signaling PG antagonist assay, DP1 stable cell line; details: HEK-293 EBNA cells, human recombinant DP1 with chimeric Gqs; standard agonist BW 245C; read-out: DP (Kb, PG antagonist activity)
T6 construct: expressed in transfected cells
T6 sequence (Q13258 1-359): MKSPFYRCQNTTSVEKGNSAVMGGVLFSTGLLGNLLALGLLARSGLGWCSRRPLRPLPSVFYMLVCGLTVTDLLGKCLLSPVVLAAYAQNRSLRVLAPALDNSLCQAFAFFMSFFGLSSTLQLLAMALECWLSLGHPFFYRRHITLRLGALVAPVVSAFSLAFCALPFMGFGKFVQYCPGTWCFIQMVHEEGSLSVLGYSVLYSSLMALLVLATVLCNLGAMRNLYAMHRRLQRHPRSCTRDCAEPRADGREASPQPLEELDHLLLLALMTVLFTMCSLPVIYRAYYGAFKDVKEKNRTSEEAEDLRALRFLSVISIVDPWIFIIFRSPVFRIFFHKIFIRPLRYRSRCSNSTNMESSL
Protocol: as §1, §2, §3

T2 sequence (P35408 whole entry): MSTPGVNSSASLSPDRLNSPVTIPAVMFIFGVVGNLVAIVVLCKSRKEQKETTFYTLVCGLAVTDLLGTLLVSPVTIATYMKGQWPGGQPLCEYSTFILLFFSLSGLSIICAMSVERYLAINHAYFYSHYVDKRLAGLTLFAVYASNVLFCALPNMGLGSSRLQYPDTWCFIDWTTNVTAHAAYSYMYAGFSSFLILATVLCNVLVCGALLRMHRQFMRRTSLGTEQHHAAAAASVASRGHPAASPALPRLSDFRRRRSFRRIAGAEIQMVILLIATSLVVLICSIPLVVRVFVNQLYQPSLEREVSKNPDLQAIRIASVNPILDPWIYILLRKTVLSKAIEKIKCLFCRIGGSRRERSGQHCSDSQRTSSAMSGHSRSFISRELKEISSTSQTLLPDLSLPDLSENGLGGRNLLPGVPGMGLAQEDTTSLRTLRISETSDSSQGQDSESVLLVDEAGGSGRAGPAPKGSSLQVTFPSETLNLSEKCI
T5 sequence (P43088 whole entry): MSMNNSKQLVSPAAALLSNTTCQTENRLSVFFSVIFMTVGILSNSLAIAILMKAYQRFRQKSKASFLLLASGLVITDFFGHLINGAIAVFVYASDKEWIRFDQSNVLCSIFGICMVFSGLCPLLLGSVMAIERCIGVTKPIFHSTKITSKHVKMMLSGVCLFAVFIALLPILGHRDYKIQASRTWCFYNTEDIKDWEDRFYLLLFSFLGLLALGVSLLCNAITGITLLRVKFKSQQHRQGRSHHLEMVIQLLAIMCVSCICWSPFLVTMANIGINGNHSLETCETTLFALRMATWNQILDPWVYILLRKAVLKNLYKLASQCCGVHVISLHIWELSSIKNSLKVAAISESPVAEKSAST
T3 sequence (P43116 whole entry): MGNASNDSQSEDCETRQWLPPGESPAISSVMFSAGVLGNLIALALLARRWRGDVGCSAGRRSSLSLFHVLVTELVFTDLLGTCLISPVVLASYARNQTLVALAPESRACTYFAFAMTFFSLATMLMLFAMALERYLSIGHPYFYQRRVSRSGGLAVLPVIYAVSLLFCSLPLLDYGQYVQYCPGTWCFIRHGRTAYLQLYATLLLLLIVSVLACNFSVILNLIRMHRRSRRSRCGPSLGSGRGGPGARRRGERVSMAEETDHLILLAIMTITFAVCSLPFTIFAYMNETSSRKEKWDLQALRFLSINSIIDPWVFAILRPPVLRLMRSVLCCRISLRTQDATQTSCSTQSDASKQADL
T4 sequence (P43119 whole entry): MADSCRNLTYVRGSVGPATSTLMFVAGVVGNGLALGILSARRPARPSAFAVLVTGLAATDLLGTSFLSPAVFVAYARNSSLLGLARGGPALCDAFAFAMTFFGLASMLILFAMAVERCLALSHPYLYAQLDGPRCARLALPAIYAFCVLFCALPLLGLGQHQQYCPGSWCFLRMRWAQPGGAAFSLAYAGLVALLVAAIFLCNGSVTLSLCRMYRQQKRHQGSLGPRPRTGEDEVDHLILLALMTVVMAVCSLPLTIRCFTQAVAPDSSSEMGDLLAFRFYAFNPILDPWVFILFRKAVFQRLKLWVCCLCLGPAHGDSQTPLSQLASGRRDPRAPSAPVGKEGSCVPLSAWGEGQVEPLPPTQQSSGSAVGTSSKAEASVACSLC

CC(C)COc1ccc(Br)cc1Cn1ccc2nc(C(=O)O)ccc21 [Example 73, 1-(5-Bromo-2-Isobutoxy-Benzyl)-1H-Pyrrolo[3,2-B]Pyridine-5-Carboxylic Acid]
Kb [1]: 80 nM | Kb [2]: ≥ 10000 nM | Kb [3]: ≥ 10000 nM | Kb [4]: 9000 nM | Kb [5]: 430 nM | Kb [6]: ≥ 10000 nM

O=C(O)c1ccc2c(cnn2Cc2cc(Cl)ccc2OCC2CCCC2)c1 [Example 10, 1-(5-Chloro-2-Cyclopentylmethoxy-Benzyl)-1H-Indazole-5-Carboxylic Acid]
Kb [1]: 50 nM | Kb [2]: 20 nM | Kb [3]: 500 nM | Kb [4]: 400 nM | Kb [5]: 30 nM | Kb [6]: 440 nM

Cc1ccc(OCC(C)C)c(Cn2ncc3cc(C(=O)O)ccc32)n1 [Example 50, 1-(3-Isobutoxy-6-Methyl-Pyridin-2-ylmethyl)-1H-Indazole-5-Carboxylic Acid]
Kb [1]: 90 nM | Kb [2]: 1800 nM | Kb [3]: ≥ 10000 nM | Kb [4]: ≥ 10000 nM | Kb [5]: 4900 nM | Kb [6]: 2400 nM

CCC(CC)COc1ccc(Cl)cc1Cn1cc2c(C(=O)O)cccc2n1 [Example 39, 2-[5-Chloro-2-(2-Ethyl-Butoxy)-Benzyl]-2H-Indazole-4-Carboxylic Acid]
Kb [1]: 1200 nM | Kb [2]: 1600 nM | Kb [3]: ≥ 10000 nM | Kb [4]: 4900 nM | Kb [5]: ≥ 10000 nM | Kb [6]: 1000 nM

CC(C)COc1c(F)cc(Cl)cc1Cn1ncc2cc(C(=O)O)ccc21 [Example 47, 1-(5-Chloro-3-Fluoro-2-Isobutoxy-Benzyl)-1H-Indazole-5-Carboxylic Acid]
Kb [1]: 2000 nM | Kb [2]: ≥ 10000 nM | Kb [3]: ≥ 10000 nM | Kb [4]: 4800 nM | Kb [5]: 4700 nM | Kb [6]: 700 nM

CCC(CC)COc1ccc(Br)cc1Cn1nc(C)c2cc(C(=O)O)ccc21 [Example 27, 1-[5-Bromo-2-(2-Ethyl-Butoxy)-Benzyl]-3-Methyl-1H-Indazole-5-Carboxylic Acid]
Kb [1]: 110 nM | Kb [2]: 53 nM | Kb [3]: 3640 nM | Kb [4]: 440 nM | Kb [5]: 200 nM | Kb [6]: 1600 nM

Cc1nn(Cc2cc(Cl)ccc2OCC(C)C)c2ccc(C(=O)O)cc12 [Example 24, 1-(5-Chloro-2-Isobutoxy-Benzyl)-3-Methyl-1H-Indazole-5-Carboxylic Acid]
Kb [1]: 20 nM | Kb [2]: 150 nM | Kb [3]: 4500 nM | Kb [4]: 1430 nM | Kb [5]: 40 nM | Kb [6]: 160 nM

O=C(O)c1cccc2nn(Cc3cc(Cl)ccc3OCC3CC3)cc12 [Example 35, 2-(5-Chloro-2-Cyclopropylmethoxy-Benzyl)-2H-Indazole-4-Carboxylic Acid]
Kb [1]: 4200 nM | Kb [2]: 670 nM | Kb [3]: ≥ 10000 nM | Kb [4]: ≥ 10000 nM | Kb [5]: 4300 nM | Kb [6]: 1900 nM

O=C(O)c1ccc2c(cnn2Cc2cc(Cl)ccc2OCc2ccccc2)c1 [Example 8, 1-(2-Benzyloxy-5-Chloro-Benzyl)-1H-Indazole-5-Carboxylic Acid]
Kb [1]: 220 nM | Kb [2]: 1300 nM | Kb [3]: 5000 nM | Kb [4]: 2800 nM | Kb [5]: 200 nM | Kb [6]: 2600 nM

O=C(O)c1ccc2c(cnn2Cc2cc(Cl)ccc2OCC2CC2)c1 [Example 11, 1-(5-Chloro-2-Cyclopropylmethoxy-Benzyl)-1H-Indazole-5-Carboxylic Acid]
Kb [1]: 120 nM | Kb [2]: 110 nM | Kb [3]: 2000 nM | Kb [4]: 5500 nM | Kb [5]: 120 nM | Kb [6]: 900 nM

CC(C)COc1ccc(OC(F)(F)F)cc1Cn1ccc2cc(C(=O)O)ccc21 [Example 71, 1-(2-Isobutoxy-5-Trifluoromethoxy-Benzyl)-1H-Indole-5-Carboxylic Acid]
Kb [1]: 100 nM | Kb [2]: 280 nM | Kb [3]: ≥ 10000 nM | Kb [4]: ≥ 10000 nM | Kb [5]: 120 nM | Kb [6]: ≥ 10000 nM

Cc1cc2cc(C(=O)O)ccc2n1Cc1cc(Br)ccc1OCC(C)C [Example 66, 1-(5-Bromo-2-Isobutoxy-Benzyl)-2-Methyl-1H-Indole-5-Carboxylic Acid]
Kb [1]: 50 nM | Kb [2]: 1400 nM | Kb [3]: ≥ 10000 nM | Kb [4]: 4600 nM | Kb [5]: 23 nM | Kb [6]: ≥ 10000 nM

CCC(CC)Oc1ccc(Br)cc1Cn1ncc2cc(C(=O)O)ccc21 [Example 51, 1-[5-Bromo-2-(1-Ethyl-Propoxy)-Benzyl]-1H-Indazole-5-Carboxylic Acid]
Kb [1]: 70 nM | Kb [2]: 270 nM | Kb [3]: ≥ 10000 nM | Kb [4]: 1100 nM | Kb [5]: 110 nM | Kb [6]: 600 nM

CC(C)COc1ccc(Cl)cc1Cn1ncc2c(C(=O)O)cccc21 [Example 36, 1-(5-Chloro-2-Isobutoxy-Benzyl)-1H-Indazole-4-Carboxylic Acid]
Kb [1]: 60 nM | Kb [2]: 1200 nM | Kb [3]: 2900 nM | Kb [4]: 200 nM | Kb [5]: 580 nM | Kb [6]: 1100 nM

CCC(CC)COc1ccc(Cl)cc1Cn1ncc2cc(C(=O)O)ncc21 [Example 63, 1-[5-Chloro-2-(2-Ethyl-Butoxy)-Benzyl]-1H-Pyrazolo[3,4-C]Pyridine-5-Carboxylic Acid]
Kb [1]: 1200 nM | Kb [2]: 2500 nM | Kb [3]: ≥ 10000 nM | Kb [4]: 5000 nM | Kb [5]: 2400 nM | Kb [6]: ≥ 10000 nM

CCC(CC)COc1ccc(Br)cc1Cn1nc(C)c2cc(C(=O)O)cnc21 [Example 59, 1-[5-Bromo-2-(2-Ethyl-Butoxy)-Benzyl]-3-Methyl-1H-Pyrazolo[3,4-B]Pyridine-5-Carboxylic Acid]
Kb [1]: 280 nM | Kb [2]: 190 nM | Kb [3]: ≥ 10000 nM | Kb [4]: 540 nM | Kb [5]: 1300 nM | Kb [6]: 520 nM

— patent US10988474B2, “Compounds acting at multiple prostaglandin receptors giving a general anti-inflammatory response” (ALLERGAN, INC., priority 2011, dated 2021)
